In US7268128B2, “1,3,5-trisubstituted-5-phenyl and 5-pyridyl pyrazolopyrimidinone derivatives having PDE7 inhibiting action” (Ausbio Pharma Co., Ltd., priority 2001, dated 2007):

What follows are compounds tested against T1, PDE7 (type VII phosphodiesterase) (Homo sapiens, UniProt Q13946) (assay: PDE7 inhibiting activity (3H-cAMP hydrolysis, active fraction from MOLT-4 cells)). Conditions: PDE7 fraction from MOLT-4 cells, 0.064 μM cAMP, 10 μM rolipram present, 2 hours at 25° C.; read-out: IC50 values for phosphodiesterase inhibiting activities (PDE7).
T1 construct: endogenous in cells; host or cells: MOLT-4 (ATCC CRL-1582), soluble fraction, HiTrapQ anion-exchange fraction
Assay type: biochemical
Method in brief: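 Read-out: supernatant radioactivity after twice-repeated QAE-Sephadex treatment of a 2 h, 25° C reaction (3H-cAMP at 0.064 μM cAMP, 10 μM rolipram, 5′-nucleotidase, 1 mM MgCl2, pH 7.5). Enzyme is an anion-exchange-purified fraction from MOLT-4 T cells. IC50 taken as half-maximal inhibition.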

T1 sequence (Q13946 whole entry): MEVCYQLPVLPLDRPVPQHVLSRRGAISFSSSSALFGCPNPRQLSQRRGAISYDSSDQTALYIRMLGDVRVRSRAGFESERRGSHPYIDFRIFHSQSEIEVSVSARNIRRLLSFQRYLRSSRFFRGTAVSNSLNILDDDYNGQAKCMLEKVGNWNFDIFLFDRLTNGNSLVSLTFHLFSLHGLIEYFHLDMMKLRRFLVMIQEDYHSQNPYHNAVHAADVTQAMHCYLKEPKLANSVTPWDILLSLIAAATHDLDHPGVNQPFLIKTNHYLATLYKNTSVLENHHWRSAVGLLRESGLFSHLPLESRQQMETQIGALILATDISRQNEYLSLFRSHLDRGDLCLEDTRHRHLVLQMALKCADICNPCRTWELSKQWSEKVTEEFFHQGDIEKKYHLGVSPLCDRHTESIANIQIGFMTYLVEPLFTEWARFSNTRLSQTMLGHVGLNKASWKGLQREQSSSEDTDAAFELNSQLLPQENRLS

Row | Compound | IC50
1 | COc1cc(N2CCC(OC)CC2)ccc1-c1nc2c(c(C3CCCCC3)nn2C)c(=O)[nH]1 [Example 62, 3-Cyclohexyl-6-[2-methoxy-4-(4-methoxy-1-piperidinyl)phenyl]-1-methyl-1,5-dihydro-4H-pyrazolo[3,4-d]pyrimidin-4-one monomethanesulfonate] | ≤ 10 nM
2 | COc1cc(N2CCN(C)C2=O)ccc1-c1nc2c(c(C3CCCCC3)nn2C)c(=O)[nH]1 [Example 152, 3-Cyclohexyl-6-[2-methoxy-4-(3-methyl-2-oxo-1-imidazolidinyl)phenyl]-1-methyl-1,5-dihydro-4H-pyrazolo[3,4-d]pyrimidin-4-one] | ≤ 10 nM
3 | COc1cc(S(=O)(=O)N2CCCNCC2)ccc1-c1nc2c(c(C3CCCCC3)nn2C)c(=O)[nH]1 [Example 161, 3-Cyclohexyl-6-[4-(1,4-diazepan-1-ylsulfonyl)-2-methoxyphenyl]-1-methyl-1,5-dihydro-4H-pyrazolo[3,4-d]pyrimidin-4-one monomethanesulfonate] | ≤ 1000 nM
4 | COc1cc(OCC(=O)O)ccc1-c1nc2c(c(C3CCCCC3)nn2C)c(=O)[nH]1 [Example 41, [4-(3-cyclohexyl-1-methyl-4-oxo-4,5-dihydro-1H-pyrazolo[3,4-d]pyrimidin-6-yl)-3-methoxyphenoxy]acetic acid] | ≤ 1000 nM
5 | COc1cc(S(=O)(=O)N2CCC(N)C2)ccc1-c1nc2c(c(C3CCCCC3)nn2C)c(=O)[nH]1 (stereo not drawn) [Example 172, 6-{4-[(3-Amino-1-pyrrolidinyl)sulfonyl]-2-methoxyphenyl}-3-cyclohexyl-1-methyl-1,5-dihydro-4H-pyrazolo[3,4-d]pyrimidin-4-one monomethanesulfonate] | ≤ 1000 nM
6 | COCC(=O)Nc1ccc(-c2nc3c(c(C4CCCCC4)nn3C)c(=O)[nH]2)c(OC)c1 [Example 46, N-[4-(3-cyclohexyl-1-methyl-4-oxo-4,5-dihydro-1H-pyrazolo[3,4-d]pyrimidin-6-yl)-3-methoxyphenyl]-2-methoxyacetamide] | ≤ 10 nM
7 | CNC1CCN(c2ccc(-c3nc4c(c(C5CCCCCC5)nn4C)c(=O)[nH]3)c(OC)c2)CC1 [Example 95, 3-Cycloheptyl-6-{2-methoxy-4-[4-(methylamino)-1-piperidinyl]phenyl}-1-methyl-1,5-dihydro-4H-pyrazolo[3,4-d]pyrimidin-4-one monomethanesulfonate] | ≤ 10 nM
8 | CNC1CCN(S(=O)(=O)c2ccc(-c3nc4c(c(C5CCCCC5)nn4C)c(=O)[nH]3)c(OC)c2)CC1 [Example 169, 3-Cyclohexyl-6-(2-methoxy-4-{[4-(methylamino)-1-piperidinyl]sulfonyl}phenyl)-1-methyl-1,5-dihydro-4H-pyrazolo[3,4-d]pyrimidin-4-one monomethanesulfonate] | ≤ 1000 nM
9 | CNC1CCN(c2ccc(-c3nc4c(c(C5CCCCC5)nn4C)c(=O)[nH]3)cc2)CC1 [Example 189, 3-Cyclohexyl-1-methyl-6-{4-[4-(methylamino)-1-piperidinyl]phenyl}-1,5-dihydro-4H-pyrazolo[3,4-d]pyrimidin-4-one monomethanesulfonate] | ≤ 1000 nM
10 | CCOc1ccccc1-c1nc2c(C)nn(C3CCCCC3)c2c(=O)[nH]1 [Example 13, 1-Cyclohexyl-5-(2-ethoxyphenyl)-3-methyl-1,6-dihydro-7H-pyrazolo[4,3-d]pyrimidin-7-one] | ≤ 1000 nM
11 | Cc1nn(C2CCCCC2)c2c(=O)[nH]c(-c3ccc(N)cn3)nc12 [Example 11, 5-(5-Amino-2-pyridinyl)-1-cyclohexyl-3-methyl-1,6-dihydro-7H-pyrazolo[4,3-d]pyrimidin-7-one] | ≤ 1000 nM
12 | COc1cc(S(=O)(=O)N2CCS(=O)(=O)CC2)ccc1-c1nc2c(c(C3CCCCC3)nn2C)c(=O)[nH]1 [Example 191, 3-Cyclohexyl-6-{4-[(1,1-dioxido-4-thiomorpholinyl)sulfonyl]-2-methoxyphenyl}-1-methyl-1,5-dihydro-4H-pyrazolo[3,4-d]pyrimidin-4-one] | ≤ 1000 nM
13 | COc1cc(N2CCC(O)CC2)ccc1-c1nc2c(c(C3CCCCC3)nn2C)c(=O)[nH]1 [Example 32, 3-Cyclohexyl-6-[4-(4-hydroxy-1-piperidinyl)-2-methoxyphenyl]-1-methyl-1,5-dihydro-4H-pyrazolo[3,4-d]pyrimidin-4-one monomethanesulfonate] | ≤ 10 nM
14 | CCn1nc(C2CCCCC2)c2c(=O)[nH]c(-c3ccc(S(=O)(=O)N4CCCN(C)CC4)cc3OC)nc21 [Example 208, 3-Cyclohexyl-1-ethyl-6-{2-methoxy-4-[(4-methyl-1,4-diazepan-1-yl)sulfonyl]phenyl}-1,5-dihydro-4H-pyrazolo[3,4-d]pyrimidin-4-one] | ≤ 1000 nM
15 | COc1cc(S(=O)(=O)N2CCCN(C)CC2)ccc1-c1nc2c(c(C3CCCCC3)nn2C)c(=O)[nH]1 [Example 163, 3-Cyclohexyl-6-{2-methoxy-4-[(4-methyl-1,4-diazepan-1-yl)sulfonyl]phenyl}-1-methyl-1,5-dihydro-4H-pyrazolo[3,4-d]pyrimidin-4-one monomethanesulfonate] | ≤ 10 nM
16 | CNCCCN(C)S(=O)(=O)c1ccc(-c2nc3c(C)nn(C4CCCCC4)c3c(=O)[nH]2)c(OC)c1 [Example 215, 4-(1-Cyclohexyl-3-methyl-7-oxo-6,7-dihydro-1H-pyrazolo[4,3-d]pyrimidin-5-yl)-3-methoxy-N-methyl-N-[3-(methylamino)propyl]benzenesulfonamide] | ≤ 1000 nM
17 | COc1cc(S(=O)(=O)N(C)CCO)ccc1-c1nc2c(c(C3CCCCC3)nn2C)c(=O)[nH]1 [Example 156, 4-(3-Cyclohexyl-1-methyl-4-oxo-4,5-dihydro-1H-pyrazolo[3,4-d]pyrimidin-6-yl)-N-(2-hydroxyethyl)-3-methoxy-N-methylbenzenesulfonamide] | ≤ 1000 nM
18 | COc1cc(N(C)C2CCN(C)CC2)ccc1-c1nc2c(C)nn(C3CCCCC3)c2c(=O)[nH]1 [Example 267, 1-Cyclohexyl-5-{2-methoxy-4-[methyl(1-methyl-4-piperidinyl)amino]phenyl}-3-methyl-1,6-dihydro-7H-pyrazolo[4,3-d]pyrimidin-7-one] | ≤ 1000 nM

Next, values leading:

Row | IC50 | Compound
19 | ≤ 1000 nM | COc1cc(N2CCC(N(C)C(C)=O)CC2)ccc1-c1nc2c(C)nn(C3CCCCC3)c2c(=O)[nH]1 [Example 119, N-{1-[4-(1-cyclohexyl-3-methyl-7-oxo-6,7-dihydro-1H-pyrazolo[4,3-d]pyrimidin-5-yl)-3-methoxyphenyl]-4-piperidiny}-N-methylacetamide]
20 | ≤ 1000 nM | COc1cc(NC2CCN(C(C)=O)CC2)ccc1-c1nc2c(C)nn(C3CCCCC3)c2c(=O)[nH]1 [Example 231, 5-{4-[(1-Acetyl-4-piperidinyl)amino]-2-methoxyphenyl}-1-cyclohexyl-3-methyl-1,6-dihydro-7H-pyrazolo[4,3-d]pyrimidin-7-one]
21 | ≤ 1000 nM | CCN1CCN(S(=O)(=O)c2ccc(-c3nc4c(C)nn(C5CCCCC5)c4c(=O)[nH]3)c(OC)c2)CC1 [Example 218, 1-Cyclohexyl-5-{4-[(4-ethyl-1-piperazinyl)sulfonyl]-2-methoxyphenyl}-3-methyl-1,6-dihydro-7H-pyrazolo[4,3-d]pyrimidin-7-one]
22 | ≤ 1000 nM | CCNC1CCN(c2ccc(-c3nc4c(C)nn(C5CCCCC5)c4c(=O)[nH]3)c(OCC)c2)CC1 [Example 253, 1-Cyclohexyl-5-{2-ethoxy-4-[4-(ethylamino)-1-piperidinyl]phenyl}-3-methyl-1,6-dihydro-7H-pyrazolo[4,3-d]pyrimidin-7-one]
23 | ≤ 10 nM | CCOc1cc(N2CCC(N(C)C)CC2)ccc1-c1nc2c(C)nn(C3CCCCC3)c2c(=O)[nH]1 [Example 250, 1-Cyclohexyl-5-{4-[4-(dimethylamino)-1-piperidinyl]-2-ethoxyphenyl}-3-methyl-1,6-dihydro-7H-pyrazolo[4,3-d]pyrimidin-7-one]
24 | ≤ 1000 nM | COc1cc(N2CCN(C)CC2)ccc1-c1nc2c(C)nn(C3CCCCC3)c2c(=O)[nH]1 [Example 16, 1-Cyclohexyl-5-[2-methoxy-4-(4-methyl-1-piperazinyl)phenyl]-3-methyl-1,6-dihydro-7H-pyrazolo[4,3-d]pyrimidin-7-one]
25 | ≤ 10 nM | CCOc1cc(N2CCC(N)CC2)ccc1-c1nc2c(C)nn(C3CCCCC3)c2c(=O)[nH]1 [Example 260, 5-[4-(4-Amino-1-piperidinyl)-2-ethoxyphenyl]-1-cyclohexyl-3-methyl-1,6-dihydro-7H-pyrazolo[4,3-d]pyrimidin-7-one]
26 | ≤ 10 nM | CCOc1cc(N2CCC(NC)CC2)ccc1-c1nc2c(C)nn(C3CCCCC3)c2c(=O)[nH]1 [Example 121, 1-Cyclohexyl-5-{2-ethoxy-4-[4-(methylamino)-1-piperidinyl]phenyl}-3-methyl-1,6-dihydro-7H-pyrazolo[4,3-d]pyrimidin-7-one]
27 | ≤ 1000 nM | COc1cc(N2CCC(N(C)C=O)CC2)ccc1-c1nc2c(C)nn(C3CCCCC3)c2c(=O)[nH]1 [Example 118, 1-[4-(1-Cyclohexyl-3-methyl-7-oxo-6,7-dihydro-1H-pyrazolo[4,3-d]pyrimidin-5-yl)-3-methoxyphenyl]-4-piperidiny(methyl)formamide]
28 | ≤ 1000 nM | COc1cc(N2CCC(N)CC2)ccc1-c1nc2c(C)nn(C3CCCCC3)c2c(=O)[nH]1 [Example 247, 5-[4-(4-Amino-1-piperidinyl)-2-methoxyphenyl]-1-cyclohexyl-3-methyl-1,6-dihydro-7H-pyrazolo[4,3-d]pyrimidin-7-one]
29 | ≤ 1000 nM | COc1ccc(F)cc1-c1nc2c(C)nn(C3CCCCC3)c2c(=O)[nH]1 [Example 18, 1-Cyclohexyl-5-(5-fluoro-2-methoxyphenyl)-3-methyl-1,6-dihydro-7H-pyrazolo[4,3-d]pyrimidin-7-one]
30 | ≤ 1000 nM | CNS(=O)(=O)c1ccc(-c2nc3c(C)nn(C4CCCCC4)c3c(=O)[nH]2)c(OC)c1 [Example 201, 4-(1-Cyclohexyl-3-methyl-7-oxo-6,7-dihydro-1H-pyrazolo[4,3-d]pyrimidin-5-yl)-3-methoxy-N-methylbenzenesulfonamide]
